Key:
[1] = Analysis of free imazalil in treatment water by HPLC; assay type: physicochemical; conditions: for [IMZ] free in water: treatment water at the moment of treatment; for Reduction of [IMZ] in water: versus reference treatment water
Experimental: (§1) 1 ml of test solution of loaded microparticles was filtered through a nylon 0.45 micron syringe filter and later analyzed by HPLC (Agilent 1100 Series).
Chromatographic Conditions:
60% Phosphate buffer pH=2.5, 2 mM
(§2) For the LD treatments, IMZ LD C18 and IMZ LD C12, suspensions of (IMZ)SG-C18-OH and (IMZ)SG-C12-OH at 6 g/l in tap water buffered with 10 mM of sodium etidronate at pH=7.5 was prepared from the concentrated suspensions described in examples 7 and 8. […] As a control, a treatment of bathing in tap water was carried out (CONTROL).
(§3) The reduction of free fungicide in water is calculated as: 100×(concentration of free fungicide in reference treatment water−concentration of free fungicide in LD treatment water)/concentration of free fungicide in reference treatment water. Likewise, the reduction of fungicide residues in fruits is calculated as: 100×(fungicide residues in fruit in reference treatment−fungicide residues in fruit in LD treatment)/fungicide residues in fruit in reference treatment.

[2] = Analysis of free pyrimethanil in treatment water by HPLC; assay type: physicochemical; conditions: example 17
Experimental: as §3
This experiment was carried out following the same procedure as for examples 9-14. The free pyrimethanil residues in water and virtual were analyzed according to examples 18 and 19. For the reference conventional treatment (PIRREF) a solution of pyrimethanil at 525 mg/l in tap water was prepared from a commercial solution at 40% (PENBOTEC). For the LD treatment (PIR LD C18) a suspension of (PIR)SG-C18-OH of 14 g/l in tap water buffered with sodium etidronate 10 mM at pH=7.5 was prepared from the concentrated suspension described in example 16. A 14 g/l suspension correspond to a virtual pyrimethanil concentration contained within the microparticles of 525 mg/l. As a control, a treatment of bathing in tap water was carried out (CONTROL).
as §1
(§4) Chromatographic Conditions: […]

Penicillium digitatum = assay: Rotting control (RRI) in oranges of Valencia variety inoculated with P. digitatum; assay type: in vivo; conditions: 7 days at 22° C. and 85% RH
Experimental: Without previous washing or treatment, fruits from the same batch, receive from field, were randomized in groups of 25. Each treatment was performed with 4 replicates of 25 fruits, which were artificially inoculated on one side by pricking with a punch (2 mm length, 1 mm diameter) previously impregnated in a solution of Penicillium digitatum or Penicillium italicum spores of 5*10^5 cfu/ml and allowed to stand for 17 hours before treatment.
as §2
The 25 fruits of each replicate were bathed using a mesh by immersion for 30 seconds in 10 l of treatment. […] After this time, the number of rotten fruits were counted for each replicate. The effectiveness of the treatments is expressed as % rotting and also as rotting reduction index (RRI, %), which is calculated as: 100×(No. of rotten control fruits−No. of rotten products in the treatment)/No. of rotten fruits in the control.
This experiment was carried out following the same procedure as for examples 9-14. The free pyrimethanil residues in water and virtual were analyzed according to examples 18 and 19. […]

[3] = Analysis of free thiabenzadol in treatment water by HPLC; assay type: physicochemical; conditions: example 22
Experimental: as §3
This experiment was carried out following the same procedure as for examples 9-14. The free thiabenzadol residues in water and virtual were analyzed according to examples 23 and 24. For the reference conventional treatment (TBZ REF) a solution of thiabenzadol at 1200 mg/l in tap water was prepared from a commercial solution at 40% (TEXTAR). For the LD treatment (TBZ LD C18) a suspension of (TBZ)SG-C18-OH of 16 g/l in tap water buffered with sodium etidronate 10 mM at pH=7.5 was prepared from the concentrated suspension described in example 21. A 16 g/l suspension correspond to a virtual thiabenzadol concentration contained within the microparticles of 1200 mg/l. As a control, a treatment of bathing in tap water was carried out (CONTROL).
as §1, §4

[4] = treatment water at the moment of treatment
[5] = versus reference treatment water

Molecule: imazalil sulfate [IMZ REF]
- [IMZ] free in water ([1]; example 9): 450 mg/L
- Reduction of [IMZ] in water ([1]; example 9): 0.0%
- [IMZ] free in water ([1]; example 10): 450 mg/L
- Reduction of [IMZ] in water ([1]; example 10): 0.0%
- [IMZ] free in water ([1]; example 11): 450 mg/L
- Reduction of [IMZ] in water ([1]; example 11): 0.0%
- [IMZ] free in water ([1]; example 12): 450 mg/L
- Reduction of [IMZ] in water ([1]; example 12): 0.0%
- [IMZ] free in water ([1]; example 13): 450 mg/L
- Reduction of [IMZ] in water ([1]; example 13): 0.0%
- [IMZ] free in water ([1]; example 14): 450 mg/L
- Reduction of [IMZ] in water ([1]; example 14): 0.0%

Molecule: Cc1cc(C)nc(Nc2ccccc2)n1 [PIR REF, pyrimethanil]
- [PIR] free in water [2, 4]: 525 mg/L
- Reduction of [PIR] in water [2, 5]: 0.0%
- rotting reduction index (RRI) (Penicillium digitatum; example 17, FIG. 16, 14 g/l (PIR)SG-C18-OH in etidronic buffer pH=7.5 or pyrimethanil 525 mg/l): ~90%

Molecule: c1ccc2[nH]c(-c3cscn3)nc2c1 [TBZ REF, thiabenzadol]
- rotting reduction index (RRI) (Penicillium digitatum; example 22, FIG. 18, 16 g/l (TBZ)SG-C18-OH in etidronic buffer pH=7.5 or thiabenzadol 1200 mg/l): 100%
- [TBZ] free in water [3, 4]: 1200 mg/L
- Reduction of [TBZ] in water [3, 5]: 0.0%

— US10736316B2, “Silica particles functionalized and loaded with fungicidal agents, their manufacture and their use as systems of targeted and controlled release of fungicides” (priority 2015, dated 2020)
